Measurements published in patent US4593047A, “Process for the preparation of 3-trifluoromethyl-and 2,5-dimethyl-4'-hdyroxy-α-ethyl-benzhydrol, and pharmaceutical compositions containing them” (Richter Gedeon Vegyeszeti Cyar RT, priority 1982, dated 1986).

Tests used:
[1] = cited from earlier work
enzyme system of liver = details: cited from earlier work
[2] = in vivo; cited from earlier work
[3] = Ethanolic narcosis period test (Table 1, 1 hour oral pretreatment); type: in vivo, Hann.-Wistar rats; details: 1 hour before ethanol i.p., n=10, control = 100 ± 7.9
Protocol: (§1) The effect of the compounds according to the invention on ethanolic narcosis period was tested on Hann.-Wistar rats of both sexes, each weighing 160 to 180 g. The animals were fasted for 16 hours prior to treatment and tests were performed on groups of 10. The animals were treated with various doses of the test compounds orally. One hour after treatment the rats were administered a […]. dose of ethanol intraperitoneally, and their narcosis period was measured from the elapse of the righting reflex until a spontaneous correction of the body position. The mean value of the narcosis period and the percentage difference related to the control were calculated. The results are given in Table 1. x±S.E.=mean value±standard error n=number of animals The control group was treated with placebo and a 3.5 mg./kg. dose of ethanol. Narcosis period of the control: 87.4±6.91 (x±S.E.) min.

[4] = in vivo; cited from earlier work; remark: listed apart in the source
[5] = Ethanolic narcosis period as a function of the pretreatment period (Table 2); type: in vivo, Hann.-Wistar rats; details: 40.0 mg./kg. oral, n=10
Protocol: as §1, with “calculated.” for “calculated. The results are given in Table 1. x±S.E.=mean value±standard error n=number of animals The control group was treated with placebo and a 3.5 mg./kg. dose of ethanol. Narcosis period of the control: 87.4±6.91 (x±S.E.) min.”
There was examined the effect of a 40.0 mg./kg. dose of the above test compound on the ethanolic narcosis period as a function of the pretreatment-period, following the test procedure described above.

[6] = Acute toxicity, single oral dose, 14 days observation; type: in vivo
Protocol: The acute toxicity of the compound A was determined on Hann.-Wistar rats of both sexes, each weighing 160 to 180 g. in groups of 10. The animals were administered a single 2000 mg./kg. oral dose of the test compound, and then observed for 14 days.

SMILES: CC(N)(Cc1ccc(O)cc1)C(=O)O (stereo not drawn) [α-Methyl-p-tyrosine]
- Effect on locomotoric hyperactivity ([1]; mice, dose range in which spontaneous locomotor activity is decreased): normalizing effect
- Spontaneous locomotor activity ([1]; same dose range as normalizing effect on hyperactivity): decreases the spontaneous locomotor activity

SMILES: CCC(O)(c1ccccc1)c1cc(C)ccc1C (stereo not drawn) [2,5-dimethyl-α-ethyl-benzhydrol]
- Inducing effect on the enzyme system of liver (enzyme system of liver): shows a similar activity

SMILES: CC(N)Cc1ccccc1 (stereo not shown) [amphetamine]
- Motoric incoordination (ataxia) [2]: prolong the motoric incoordination (ataxia)
- Narcotizing effect of alcohol [2]: decrease the narcotizing effect of alcohol

SMILES: CCC(O)(c1ccccc1)c1cccc(C(F)(F)F)c1 (stereo not drawn) [3-trifluoromethyl-α-ethyl-benzhydrol]
- Inducing effect on the enzyme system of liver (enzyme system of liver): has an inducing effect on the enzyme system of liver

SMILES: N[C@@H](CS)C(=O)O [L-cysteine, reference compound]
- Ethanolic narcosis period (Control ± S.E. %) ([3]; 500.0 mg./kg. oral): 63 ± 4.2%
- Ethanolic narcosis period (Control ± S.E. %) ([3]; 1000.0 mg./kg. oral): 66 ± 5.9%
- Alcoholic intoxication [4]: shortened
- Alcoholic narcosis [4]: shortened

SMILES: Cn1c(=O)c2c(ncn2C)n(C)c1=O [caffeine]
- Motoric incoordination (ataxia) [2]: prolong the motoric incoordination (ataxia)
- Narcotizing effect of alcohol [2]: decrease the narcotizing effect of alcohol

SMILES: CCC(O)(c1ccc(O)cc1)c1cccc(C(F)(F)F)c1 (stereo not drawn) [A, 3-trifluoromethyl-4'-hydroxy-α-ethyl-benzhydrol]
- Ethanolic narcosis period (Control ± S.E. %) ([3]; 40.0 mg./kg. oral): 53 ± 5.8%
- Ethanolic narcosis period (Control ± S.E. %) ([3]; 80.0 mg./kg. oral): 62 ± 5.1%
- Narcosis period, treated ([5]; pretreatment 0.5 hours, control 87.2 ± 6.23): 54.1 ± 3.49
- Narcosis period, % difference from the control ([5]; pretreatment 0.5 hours): -38%
- Narcosis period, treated ([5]; pretreatment 1.0 hours, control 85.1 ± 4.91): 45.1 ± 2.30
- Narcosis period, % difference from the control ([5]; pretreatment 1.0 hours): -47%
- Narcosis period, treated ([5]; pretreatment 2.0 hours, control 85.5 ± 9.97): 29.9 ± 5.08
- Narcosis period, % difference from the control ([5]; pretreatment 2.0 hours): -65%
- Narcosis period, treated ([5]; pretreatment 3.0 hours, control 83.4 ± 8.46): 75.1 ± 4.51
- Narcosis period, % difference from the control ([5]; pretreatment 3.0 hours): -10%
- Toxicity ([6]; oral, single dose): toxicity is low
- LD50 at 336 h ([6]; rat, in vivo, oral, single dose, 14 days observation): > 2000 mg/kg
- mortality at 336 h ([6]; rat, in vivo, single 2000 mg./kg. oral dose, 14 days observation, read-out: Animals perished): 40%
